Structures are written as SMILES.

The target of one assay is T1, 5-HT2A receptor (Homo sapiens, UniProt P28223).
T1 construct: expressed in transfected cells
As to the kind of experiment: [3H]-DOB binding assay (method b), affinity to the 5-HT2A receptor. Conditions: Ki from IC50 in nM, read-out: Pki (Pki=-log10 Ki), 5-HT2A, Method b (converted). As for the experimental part: (§1) The binding of compounds of formula I in accordance with the invention to selected serotonin […] was determined in vitro by standard methods. The preparations were investigated in accordance with the tests given hereinafter:
b) Affinity to the 5-HT2A receptor in accordance with the [3H]- DOB binding assay according to the method of T. Branchek et. al., Molecular Pharmacology 38, 604-609 (1990).
(§2) The Pki values (Pki=-log10 Ki) of the test substances are given. The Ki value is defined by the following formula: [formula] with the IC50 values being those concentrations of test compounds in nM at which 50% of the receptor-bonded ligands are displaced. [L] is the ligand concentration and the KD value is the dissocation constant of the ligand.

For assay [1], the target named is T2, 5-HT2C receptor (Rattus norvegicus, UniProt P08909).
T2 sequence (P08909 33-460): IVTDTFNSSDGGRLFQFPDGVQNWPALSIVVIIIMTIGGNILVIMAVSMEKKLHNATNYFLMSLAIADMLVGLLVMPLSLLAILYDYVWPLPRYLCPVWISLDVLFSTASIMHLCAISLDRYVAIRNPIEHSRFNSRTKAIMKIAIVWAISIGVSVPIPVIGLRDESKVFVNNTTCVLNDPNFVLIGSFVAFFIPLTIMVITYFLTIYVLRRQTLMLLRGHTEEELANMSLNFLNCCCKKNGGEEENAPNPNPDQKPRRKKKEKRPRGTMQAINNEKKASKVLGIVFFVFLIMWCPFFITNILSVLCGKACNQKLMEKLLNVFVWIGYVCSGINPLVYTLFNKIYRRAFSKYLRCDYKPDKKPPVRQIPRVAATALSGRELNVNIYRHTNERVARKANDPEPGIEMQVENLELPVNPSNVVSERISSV
The assay can be described thus: [3H]-5-HT binding assay (method a), affinity to the 5-HT2C receptor. Conditions: Ki from IC50 in nM, read-out: Pki (Pki=-log10 Ki), 5-HT2C, Method a (converted). Set-up: expressed in transfected cells. On the procedure:
as §1
a) Affinity to the 5-HT2C receptor in accordance with the [3H]-5-HT binding assay according to the method of S.J. Peroutka et al., Brain Research 584, 191-196 (1992).
as §2

The target of assay [2] is T2, 5-HT2C receptor. The assay can be described thus: Penile erection (rats). The format is in vivo. Conditions: po, 0.75 h, p.o., erections within 45 minutes following administration, read-out: ID50 (mg/kg) (p.o.), penile erection. Set-up: following the administration of the test substance to the animals; from tissue; host or cells: whole living rat (in vivo). On the procedure: It has been shown that penile erection is dependent on the stimulation of 5HT2C receptors (see Berendsen & Broekkamp, Eur. J. Pharm., 135, 179-184 (1987).
The number of penile erections was determined within 45 minutes following the administration of the test substance to the animals. The ED50 is the dosage which causes 50% of these erections.

T1 sequence (P28223 whole entry): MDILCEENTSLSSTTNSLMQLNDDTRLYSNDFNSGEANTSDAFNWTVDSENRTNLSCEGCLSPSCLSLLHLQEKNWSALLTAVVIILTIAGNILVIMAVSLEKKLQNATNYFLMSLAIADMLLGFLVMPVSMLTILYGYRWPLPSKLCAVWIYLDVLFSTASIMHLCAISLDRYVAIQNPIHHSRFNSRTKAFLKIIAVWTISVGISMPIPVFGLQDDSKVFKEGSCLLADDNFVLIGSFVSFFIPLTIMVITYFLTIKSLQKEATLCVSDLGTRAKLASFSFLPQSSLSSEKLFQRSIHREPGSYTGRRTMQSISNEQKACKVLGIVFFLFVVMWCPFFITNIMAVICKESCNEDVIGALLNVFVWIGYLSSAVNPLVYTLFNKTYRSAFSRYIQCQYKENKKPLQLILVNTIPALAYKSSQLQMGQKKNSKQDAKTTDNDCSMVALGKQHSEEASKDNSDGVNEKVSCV

What is called Ki is a dissociation constant, usually derived from enzyme kinetics or from competition with a known ligand. On to `CC(C)OCc1cccc2cc(C(=N)N)oc12` [CH2 --O-iPr H H H H], for which the Ki on 5-HT2A receptor is 2000 nM; at 5-HT2C receptor [1], 398 nM. For the same molecule, the ED50 at 5-HT2C receptor [2] is 5.1 mg/kg.
On the same counts, the results for `N=C(N)c1cc2cc(F)c(F)cc2o1` [Example 1, 5,6-Difluorobenzofuran-2-carboxamidine] are 2000 nM, 158 nM and 6 mg/kg.
As to `N=C(N)c1cc2ccc(F)cc2o1` [Example 6, 6-Fluorobenzofuran-2-carboxamidine], the Ki was 2510 nM at 5-HT2A receptor and 158 nM at 5-HT2C receptor [1]. Moreover, the ED50 at 5-HT2C receptor [2] was determined as 3 mg/kg.
On the same counts, the results for `N=C(N)c1cc2c(F)cccc2o1` [Example 9, 4-Fluoro-benzofuran-2-carboxamidine] are 2000 nM, 39.8 nM and 2.9 mg/kg.
The corresponding values for `NC(=NO)c1cc2ccc(F)cc2o1` [Example 16, 6-Fluorobenzofuran-2-carboxamidoxime] are > 10000 nM, 4370 nM and 1.6 mg/kg.
As to `NC(=NO)c1cc2ccccc2o1` [H H H H CH, benzofuran-2-carboxamidoxime], the Ki at 5-HT2A receptor and at 5-HT2C receptor [1] was > 10000 nM each time. Further, on 5-HT2C receptor [2], the ED50 came to 2 mg/kg.
On to `N=C(N)c1cc2ccccc2o1` [H H H H H, benzofuran-2-carboxamidine], for which the Ki at 5-HT2A receptor was 5010 nM; at 5-HT2C receptor [1], 79.4 nM. The ED50 at 5-HT2C receptor [2] came out at 5 mg/kg.
